Experimental data from ChEMBL document CHEMBL5113398, “Design and synthesis of new quinoline derivatives as selective C-RAF kinase inhibitors with potent anticancer activity” (Eur J Med Chem, 2022).
Converted amounts (≈) assume the structure as drawn.

What was measured:
SK-MEL-28 [1] = experiment: Anticancer activity against human SK-MEL-28 cells assessed as total cell growth inhibition incubated for 48 hrs by SRB assay; assay type: functional
A498 = experiment: Anticancer activity against human A498 cells assessed as total cell growth inhibition incubated for 48 hrs by SRB assay; assay type: functional
TK-10 [2] = experiment: Anticancer activity against human TK-10 cells assessed as cell growth inhibition incubated for 48 hrs by SRB assay; assay type: functional
A549 = experiment: Anticancer activity against human A549 cells assessed as total cell growth inhibition incubated for 48 hrs by SRB assay; assay type: functional
HCT-116 = experiment: Anticancer activity against human HCT-116 cells assessed as total cell growth inhibition incubated for 48 hrs by SRB assay; assay type: functional
SK-MEL-5 = experiment: Anticancer activity against human SK-MEL-5 cells assessed as total cell growth inhibition incubated for 48 hrs by SRB assay; assay type: functional
ACHN = experiment: Anticancer activity against human ACHN cells assessed as total cell growth inhibition incubated for 48 hrs by SRB assay; assay type: functional
EKVX = experiment: Anticancer activity against human EKVX cells assessed as cell growth inhibition incubated for 48 hrs by SRB assay; assay type: functional
HT-29 = experiment: Anticancer activity against human HT-29 cells assessed as cell growth inhibition incubated for 48 hrs by SRB assay; assay type: functional
K562 = experiment: Anticancer activity against human K562 cells assessed as total cell growth inhibition incubated for 48 hrs by SRB assay; assay type: functional
HOP-62 [3] = experiment: Anticancer activity against human HOP-62 cells assessed as cell growth inhibition incubated for 48 hrs by SRB assay; assay type: functional
DU-145 [4] = experiment: Anticancer activity against human DU-145 cells assessed as cell growth inhibition incubated for 48 hrs by SRB assay; assay type: functional
COLO 205 = experiment: Anticancer activity against human COLO 205 cells assessed as cell growth inhibition incubated for 48 hrs by SRB assay; assay type: functional
DU-145 [5] = experiment: Anticancer activity against human DU-145 cells assessed as total cell growth inhibition incubated for 48 hrs by SRB assay; assay type: functional
[6] = molecular target: Platelet-derived growth factor receptor alpha (Homo sapiens) (UniProt P16234); experiment: Inhibition of PDGFRalpha (unknown origin) at 1 uM in presence of ATP by hotspot kinase assay
Sequence of Platelet-derived growth factor receptor alpha (Homo sapiens) (P16234 whole entry): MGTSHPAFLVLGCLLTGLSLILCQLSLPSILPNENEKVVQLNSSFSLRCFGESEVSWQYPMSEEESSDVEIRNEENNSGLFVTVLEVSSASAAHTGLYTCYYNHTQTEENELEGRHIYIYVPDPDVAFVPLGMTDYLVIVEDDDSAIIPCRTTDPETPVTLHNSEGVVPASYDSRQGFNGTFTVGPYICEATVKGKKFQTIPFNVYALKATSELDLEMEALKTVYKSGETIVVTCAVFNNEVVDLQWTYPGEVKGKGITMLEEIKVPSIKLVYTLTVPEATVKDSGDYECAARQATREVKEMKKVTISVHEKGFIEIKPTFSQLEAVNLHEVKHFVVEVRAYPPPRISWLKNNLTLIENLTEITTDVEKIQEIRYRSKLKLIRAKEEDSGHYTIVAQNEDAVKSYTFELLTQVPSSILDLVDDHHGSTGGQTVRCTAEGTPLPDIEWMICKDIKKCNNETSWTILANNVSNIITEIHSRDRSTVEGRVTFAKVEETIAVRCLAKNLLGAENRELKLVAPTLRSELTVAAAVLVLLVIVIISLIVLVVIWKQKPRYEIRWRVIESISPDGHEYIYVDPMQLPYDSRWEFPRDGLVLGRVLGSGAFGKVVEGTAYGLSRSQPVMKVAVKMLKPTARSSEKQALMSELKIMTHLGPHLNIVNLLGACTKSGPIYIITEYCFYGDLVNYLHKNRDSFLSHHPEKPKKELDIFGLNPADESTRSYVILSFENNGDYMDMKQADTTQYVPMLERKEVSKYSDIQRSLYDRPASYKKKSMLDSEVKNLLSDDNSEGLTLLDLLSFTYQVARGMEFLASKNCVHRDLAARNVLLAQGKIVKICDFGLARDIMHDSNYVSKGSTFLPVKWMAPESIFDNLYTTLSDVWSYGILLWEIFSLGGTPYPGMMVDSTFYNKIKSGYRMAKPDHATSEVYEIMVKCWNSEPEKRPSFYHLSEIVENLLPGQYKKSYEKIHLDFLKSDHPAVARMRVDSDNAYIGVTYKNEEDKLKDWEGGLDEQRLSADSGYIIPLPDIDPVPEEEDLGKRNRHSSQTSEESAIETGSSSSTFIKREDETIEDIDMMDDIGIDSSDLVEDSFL

NCI-H23 = experiment: Anticancer activity against human NCI-H23 cells assessed as total cell growth inhibition incubated for 48 hrs by SRB assay; assay type: functional
HCC 2998 [7] = experiment: Anticancer activity against human HCC 2998 cells assessed as total cell growth inhibition incubated for 48 hrs by SRB assay; assay type: functional
OVCAR-8 = experiment: Anticancer activity against human OVCAR-8 cells assessed as cell growth inhibition incubated for 48 hrs by SRB assay; assay type: functional
Malme-3M [8] = experiment: Anticancer activity against human Malme-3M cells assessed as cell growth inhibition incubated for 48 hrs by SRB assay; assay type: functional
MDA-MB-435 = experiment: Anticancer activity against human MDA-MB-435 cells assessed as total cell growth inhibition incubated for 48 hrs by SRB assay; assay type: functional
[9] = molecular target: Receptor-type tyrosine-protein kinase FLT3 (Homo sapiens) (UniProt P36888); experiment: Inhibition of FLT3 (unknown origin) at 1 uM in presence of ATP by hotspot kinase assay
Sequence of Receptor-type tyrosine-protein kinase FLT3 (Homo sapiens) (P36888 whole entry): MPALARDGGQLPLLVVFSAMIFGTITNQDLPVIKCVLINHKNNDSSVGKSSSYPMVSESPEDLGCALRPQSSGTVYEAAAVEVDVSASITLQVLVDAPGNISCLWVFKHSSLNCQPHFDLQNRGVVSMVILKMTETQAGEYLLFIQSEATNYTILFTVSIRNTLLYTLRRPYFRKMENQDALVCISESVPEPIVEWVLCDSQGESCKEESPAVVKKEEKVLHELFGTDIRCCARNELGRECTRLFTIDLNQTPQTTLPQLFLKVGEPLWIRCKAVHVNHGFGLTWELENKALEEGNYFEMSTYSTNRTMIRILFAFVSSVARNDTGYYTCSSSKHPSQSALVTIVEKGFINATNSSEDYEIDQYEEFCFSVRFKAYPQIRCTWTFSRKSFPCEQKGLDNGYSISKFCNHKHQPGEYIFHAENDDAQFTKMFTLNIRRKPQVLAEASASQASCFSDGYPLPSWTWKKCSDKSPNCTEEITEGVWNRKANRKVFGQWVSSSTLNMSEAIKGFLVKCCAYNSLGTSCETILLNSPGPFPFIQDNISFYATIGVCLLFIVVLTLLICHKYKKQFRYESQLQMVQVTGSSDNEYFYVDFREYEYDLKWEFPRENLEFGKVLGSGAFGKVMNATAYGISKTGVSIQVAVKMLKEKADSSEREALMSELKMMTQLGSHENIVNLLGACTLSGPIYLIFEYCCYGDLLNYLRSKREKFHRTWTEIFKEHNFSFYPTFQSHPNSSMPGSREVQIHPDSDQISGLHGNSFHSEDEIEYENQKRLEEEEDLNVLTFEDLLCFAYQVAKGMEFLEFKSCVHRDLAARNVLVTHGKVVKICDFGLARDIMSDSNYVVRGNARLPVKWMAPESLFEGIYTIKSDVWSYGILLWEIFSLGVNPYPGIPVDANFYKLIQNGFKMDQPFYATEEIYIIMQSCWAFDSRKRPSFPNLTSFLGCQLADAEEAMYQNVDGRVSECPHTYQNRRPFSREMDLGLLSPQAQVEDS

BT-549 = experiment: Anticancer activity against human BT-549 cells assessed as cell growth inhibition incubated for 48 hrs by SRB assay; assay type: functional
PC-3 [10] = experiment: Anticancer activity against human PC-3 cells assessed as total cell growth inhibition incubated for 48 hrs by SRB assay; assay type: functional
MDA-MB-231 = experiment: Anticancer activity against human MDA-MB-231 cells assessed as cell growth inhibition incubated for 48 hrs by SRB assay; assay type: functional
NCI/ADR-RES = experiment: Anticancer activity against human NCI/ADR-RES cells assessed as cell growth inhibition incubated for 48 hrs by SRB assay; assay type: functional
NCI-H460 = experiment: Anticancer activity against human NCI-H460 cells assessed as total cell growth inhibition incubated for 48 hrs by SRB assay; assay type: functional
[11] = molecular target: Dual specificity mitogen-activated protein kinase kinase 2 (Homo sapiens) (UniProt P36507); experiment: Inhibition of MEK2 (unknown origin) at 1 uM in presence of ATP by hotspot kinase assay
Sequence of Dual specificity mitogen-activated protein kinase kinase 2 (Homo sapiens) (P36507 whole entry): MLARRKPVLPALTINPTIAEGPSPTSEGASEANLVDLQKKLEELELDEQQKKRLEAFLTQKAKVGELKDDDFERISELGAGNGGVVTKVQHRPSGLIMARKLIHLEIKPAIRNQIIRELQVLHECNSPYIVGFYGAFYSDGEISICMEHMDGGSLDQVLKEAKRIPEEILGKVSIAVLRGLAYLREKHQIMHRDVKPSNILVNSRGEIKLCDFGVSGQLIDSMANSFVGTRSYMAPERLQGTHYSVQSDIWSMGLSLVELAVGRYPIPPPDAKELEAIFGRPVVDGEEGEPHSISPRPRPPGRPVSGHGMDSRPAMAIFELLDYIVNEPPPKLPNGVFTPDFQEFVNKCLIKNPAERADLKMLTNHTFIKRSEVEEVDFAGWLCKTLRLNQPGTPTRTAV

SK-MEL-28 [12] = experiment: Anticancer activity against human SK-MEL-28 cells assessed as cell growth inhibition incubated for 48 hrs by SRB assay; assay type: functional
[13] = Aqueous solubility of compound by HPLC analysis; assay type: physicochemical
NCI-H226 = experiment: Anticancer activity against human NCI-H226 cells assessed as total cell growth inhibition incubated for 48 hrs by SRB assay; assay type: functional
RPMI-8226 = experiment: Anticancer activity against human RPMI-8226 cells assessed as cell growth inhibition incubated for 48 hrs by SRB assay; assay type: functional
U-251 = experiment: Anticancer activity against human U-251 cells assessed as total cell growth inhibition incubated for 48 hrs by SRB assay; assay type: functional
SF-539 = experiment: Anticancer activity against human SF-539 cells assessed as cell growth inhibition incubated for 48 hrs by SRB assay; assay type: functional
Malme-3M [14] = experiment: Anticancer activity against human Malme-3M cells assessed as total cell growth inhibition incubated for 48 hrs by SRB assay; assay type: functional
[15] = molecular target: Dual specificity mitogen-activated protein kinase kinase 1 (Homo sapiens) (UniProt Q02750); experiment: Inhibition of MEK1 (unknown origin) at 1 uM in presence of ATP by hotspot kinase assay
Sequence of Dual specificity mitogen-activated protein kinase kinase 1 (Homo sapiens) (Q02750 whole entry): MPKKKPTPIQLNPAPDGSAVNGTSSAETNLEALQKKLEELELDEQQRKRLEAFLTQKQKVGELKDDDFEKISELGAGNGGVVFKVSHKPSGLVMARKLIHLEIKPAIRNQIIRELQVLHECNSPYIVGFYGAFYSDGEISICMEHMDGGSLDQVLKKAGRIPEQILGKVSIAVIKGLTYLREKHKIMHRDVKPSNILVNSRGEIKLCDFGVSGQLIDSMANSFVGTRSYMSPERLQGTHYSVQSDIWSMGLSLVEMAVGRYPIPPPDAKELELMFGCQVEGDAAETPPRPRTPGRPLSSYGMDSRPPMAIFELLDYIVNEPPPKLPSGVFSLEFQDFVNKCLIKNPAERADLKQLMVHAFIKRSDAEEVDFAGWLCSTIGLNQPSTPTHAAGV

OVCAR-5 [16] = experiment: Anticancer activity against human OVCAR-5 cells assessed as cell growth inhibition incubated for 48 hrs by SRB assay; assay type: functional
HCC 2998 [17] = experiment: Anticancer activity against human HCC 2998 cells assessed as cell growth inhibition incubated for 48 hrs by SRB assay; assay type: functional
UO-31 = experiment: Anticancer activity against human UO-31 cells assessed as total cell growth inhibition incubated for 48 hrs by SRB assay; assay type: functional
TK-10 [18] = experiment: Anticancer activity against human TK-10 cells assessed as total cell growth inhibition incubated for 48 hrs by SRB assay; assay type: functional
HOP-62 [19] = experiment: Anticancer activity against human HOP-62 cells assessed as total cell growth inhibition incubated for 48 hrs by SRB assay; assay type: functional
PC-3 [20] = experiment: Anticancer activity against human PC-3 cells assessed as cell growth inhibition incubated for 48 hrs by SRB assay; assay type: functional
CAKI-1 = experiment: Anticancer activity against human CAKI-1 cells assessed as total cell growth inhibition incubated for 48 hrs by SRB assay; assay type: functional
SW-620 = experiment: Anticancer activity against human SW-620 cells assessed as cell growth inhibition incubated for 48 hrs by SRB assay; assay type: functional
OVCAR-5 [21] = experiment: Anticancer activity against human OVCAR-5 cells assessed as total cell growth inhibition incubated for 48 hrs by SRB assay; assay type: functional
HCT-15 = experiment: Anticancer activity against human HCT-15 cells assessed as cell growth inhibition incubated for 48 hrs by SRB assay; assay type: functional
[22] = molecular target: Vascular endothelial growth factor receptor 2 (Homo sapiens) (UniProt P35968); experiment: Inhibition of KDR (unknown origin) at 1 uM in presence of ATP by hotspot kinase assay
Sequence of Vascular endothelial growth factor receptor 2 (Homo sapiens) (P35968 whole entry): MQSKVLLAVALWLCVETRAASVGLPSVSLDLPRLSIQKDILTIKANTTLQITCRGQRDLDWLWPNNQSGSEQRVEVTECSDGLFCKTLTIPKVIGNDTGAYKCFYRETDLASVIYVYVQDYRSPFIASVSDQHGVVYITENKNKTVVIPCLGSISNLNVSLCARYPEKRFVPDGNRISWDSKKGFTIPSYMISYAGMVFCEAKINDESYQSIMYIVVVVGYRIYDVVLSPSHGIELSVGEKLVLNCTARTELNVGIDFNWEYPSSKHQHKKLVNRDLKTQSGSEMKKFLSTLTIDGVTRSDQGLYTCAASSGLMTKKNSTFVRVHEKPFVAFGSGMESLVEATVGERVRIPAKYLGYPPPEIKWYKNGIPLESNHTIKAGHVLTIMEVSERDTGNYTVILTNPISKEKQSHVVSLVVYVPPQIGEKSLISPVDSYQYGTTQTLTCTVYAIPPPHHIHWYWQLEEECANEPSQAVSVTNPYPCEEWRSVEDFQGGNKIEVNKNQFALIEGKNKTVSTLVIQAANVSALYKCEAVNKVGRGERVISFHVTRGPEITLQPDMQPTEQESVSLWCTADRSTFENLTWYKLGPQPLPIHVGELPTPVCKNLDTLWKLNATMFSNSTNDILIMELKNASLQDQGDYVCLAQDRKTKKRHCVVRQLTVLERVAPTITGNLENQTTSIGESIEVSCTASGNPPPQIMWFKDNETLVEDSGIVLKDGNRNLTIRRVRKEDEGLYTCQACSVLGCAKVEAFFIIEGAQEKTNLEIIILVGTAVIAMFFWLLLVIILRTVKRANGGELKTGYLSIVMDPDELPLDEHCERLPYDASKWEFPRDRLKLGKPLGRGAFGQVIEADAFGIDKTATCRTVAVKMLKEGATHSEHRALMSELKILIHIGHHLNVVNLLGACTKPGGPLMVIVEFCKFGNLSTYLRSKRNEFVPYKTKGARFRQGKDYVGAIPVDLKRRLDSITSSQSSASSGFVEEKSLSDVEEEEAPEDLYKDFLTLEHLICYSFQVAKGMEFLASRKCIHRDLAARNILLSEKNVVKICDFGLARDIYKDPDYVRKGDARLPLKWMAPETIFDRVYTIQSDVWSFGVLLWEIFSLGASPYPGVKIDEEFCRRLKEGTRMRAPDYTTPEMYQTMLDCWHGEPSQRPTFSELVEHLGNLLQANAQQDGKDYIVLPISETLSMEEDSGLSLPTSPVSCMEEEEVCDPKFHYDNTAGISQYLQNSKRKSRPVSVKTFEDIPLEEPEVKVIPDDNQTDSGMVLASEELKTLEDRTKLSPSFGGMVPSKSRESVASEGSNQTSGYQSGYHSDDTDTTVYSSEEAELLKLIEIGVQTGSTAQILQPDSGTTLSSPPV

[23] = molecular target: Epidermal growth factor receptor (Homo sapiens) (UniProt P00533); experiment: Inhibition of EGFR (unknown origin) at 1 uM in presence of ATP by hotspot kinase assay

SMILES: COc1cc2cc(Oc3ccc(NC(=O)Nc4cc(C(F)(F)F)cc(C(F)(F)F)c4)cc3)c(C)nc2cc1OCCN1CCOCC1
- TGI (SK-MEL-28 [1]): 6.94 µM
- TGI (A498): 6.69 µM
- GI50 (TK-10 [2]): 3.7 µM
- TGI (A549): 7.23 µM
- TGI (HCT-116): 5.33 µM
- TGI (SK-MEL-5): 1.66 µM
- TGI (ACHN): 5.42 µM
- GI50 (EKVX): 1.64 µM
- GI50 (HT-29): 1.75 µM
- TGI (K562): 5.5 µM
- GI50 (HOP-62 [3]): 2.2 µM
- GI50 (DU-145 [4]): 1.93 µM
- GI50 (COLO 205): 1.02 µM
- TGI (DU-145 [5]): 7.05 µM
- inhibition [6]: 26.9%
- TGI (NCI-H23): 6.69 µM
- TGI (HCC 2998 [7]): 6.97 µM
- GI50 (OVCAR-8): 1.67 µM
- GI50 (Malme-3M [8]): 1.2 µM
- TGI (MDA-MB-435): 6.72 µM
- inhibition [9]: 20.5%
- GI50 (BT-549): 1.87 µM
- TGI (PC-3 [10]): 5.16 µM
- GI50 (MDA-MB-231): 1.7 µM
- GI50 (NCI/ADR-RES): 1.59 µM
- TGI (NCI-H460): 5.52 µM
- inhibition [11]: 16.4%
- GI50 (SK-MEL-28 [12]): 1.8 µM
- solubility [13]: 317 µM (≈ 211 µg/mL)
- TGI (NCI-H226): 6.53 µM
- GI50 (RPMI-8226): 0.84 µM
- TGI (U-251): 2.85 µM
- GI50 (SF-539): 1.54 µM
- TGI (Malme-3M [14]): 3.79 µM
- inhibition [15]: 25.5%
- GI50 (OVCAR-5 [16]): 2.18 µM
- GI50 (HCC 2998 [17]): 2.09 µM
- TGI (UO-31): 4.06 µM
- TGI (TK-10 [18]): 12.5 µM
- TGI (HOP-62 [19]): 9.16 µM
- GI50 (PC-3 [20]): 1.18 µM
- TGI (CAKI-1): 5.68 µM
- GI50 (SW-620): 1.72 µM
- TGI (OVCAR-5 [21]): 7.97 µM
- GI50 (HCT-15): 1.1 µM
- inhibition [22]: 4.5%
- inhibition [23]: 3.62%
